From patent US20230141600A1, “IMIDAZOPYRAZINE DERIVATIVES” (priority 2020, published 2023)
Where a name gives a salt, the structure may show the parent alone. Read-outs that look alike come from different tables or passages of the source.

Assays:
[1] = system: Acinetobacter baumannii ATCC 17978; test: Minimal inhibitory concentration (MIC) determination, broth microdilution (CLSI M07-A10); assay type: cell-based
Description: Minimal Inhibitory Concentration (MIC) and MIC90 Determination:
The MIC of antibacterial compounds against multiple species and strains was determined using the broth microdilution method according to M07-A10 Clinical and Laboratory Standards Institute (CLSI) guidelines (CLSI (2015) Methods for dilution antimicrobial susceptibility tests for bacteria that grow aerobically; Approved Standard, Tenth Edition. CLSI Document M7-A10 (ISBN 1-56238-987-4). Wayne, Pa.: Clinical and Laboratory Standards Institute, 19087, USA), using the appropriate broth medium. In short, the compound plates were prepared by dispensing 100 μl of each stock solution in the first well of a 96 well microtiter plate (MTP) at a concentration 100-fold higher than the final concentration desired in broth. Eleven serial 2-fold dilutions of the highest concentration were made in DMSO for new compounds and in water (or appropriate solution) for reference compounds (CLSI (2017) Performance Standards for Antimicrobial Susceptibility Testing; […] Informational Supplement. CLSI Document M100-S27, CLSI, Wayne, Pa. 19087, USA). 1 μL of each well was transferred in a new MTP, which served as the test plate by subsequent inoculation. This bacterial suspension was prepared from strains that were first sub-cultured on agar plates and incubated for 18-24 hours as appropriate. Following incubation, the inoculum was prepared from isolated colonies and adjusted to 0.5 McFarland turbidity standard (1 to 2×10^8 Colony Forming Units (CFU)/mL) in 0.9% saline. The bacterial suspension was then diluted 1:200 in appropriate sterile medium and within 15 minutes 100 μL/well were dispensed. Negative controls (lack of bacterial cells) and growth control wells (lack of compound) were included in all plates. MTPs were incubated for 18-24 hours at 35±2° C. in ambient air. The MIC value of each compound, expressed as μg/mL, was determined as the lowest concentration required for complete growth inhibition (no visible growth). MIC90 and MIC50 values were defined as the lowest concentration of the antibacterial compound at which 90% and 50% of the strains were inhibited.
Table 3 provides the MIC's of particular compounds of the present invention obtained against the strain Acinetobacter baumannii ATCC 17978, expressed as μg/mL.

[2] = system: Acinetobacter baumannii ATCC17978; test: 90% growth inhibitory concentration (IC90) determination, antimicrobial susceptibility testing; assay type: cell-based; conditions: read-out: ATCC 17978 IC90
Description: Antimicrobial Susceptibility Testing:
90% Growth Inhibitory Concentration (IC90) Determination
The in vitro antimicrobial activity of the compounds was determined according to the following procedure:
The assay used a 10-points Iso-Sensitest broth medium to measure quantitatively the in vitro activity of the compounds against Acinetobacter baumannii ATCC17961 and ATCC17978.
Stock compounds in DMSO were serially twofold diluted (e.g. range from 50 to 0.097 μM final concentration) in 384 wells microtiter plates and inoculated with 49 μl the bacterial suspension in Iso-Sensitest medium to have a final cell concentration of ˜5×10^(5) CFU/ml in a final volume/well of 50 ul/well. Microtiter plates were incubated at 35±2° C.
Bacterial cell growth was determined with the measurement of optical density at λ=600 nm each minutes over a time course of 16 h. Growth inhibition was calculated during the logarithmic growth of the bacterial cells with determination of the concentration inhibiting 50% (IC50) and 90% (IC90) of the growth.
Table 1 provides the 90% growth inhibitory concentrations (IC90) in micromoles per liter of the compounds of present invention obtained against the strain Acinetobacter baumannii ATCC17978.

[3] = ATCC17978, lowest concentration for complete growth inhibition, 18-24 hours at 35±2° C., read-out: ATCC 17978 MIC
[4] = ATCC17978, 90% growth inhibition, Iso-Sensitest broth, OD 600 nm over 16 h, 35±2° C.

Compound | MIC [1, 3] [µg/mL] | further results
CCc1cc(Nc2nccn3c(-c4ccc(OC(F)F)c(F)c4F)cnc23)ccc1C(=O)N1CCC(C(=O)N2CC3CC(C2)[N+]3(C)CC2CNC2)CC1.O=C(O)C(F)(F)F.O=C([O-])C(F)(F)F.O=CO (stereo not shown) [Example 101, [4-[6-(Azetidin-3-ylmethyl)-6-methyl-3-aza-6-azoniabicyclo[3.1.1]heptane-3-carbonyl]-1-piperidyl]-[4-[[3-[4-(difluoromethoxy)-2,3-difluoro-phenyl]imidazo[1,2-a]pyrazin-8-yl]amino]-2-ethyl-phenyl]methanone formate 2,2,2-trifluoroacetate (Mixed Salt)] |  | MIC ([1]; ATCC17978, read-out: ATCC 17978 MIC): 1.84 µg/mL
CCc1cc(Nc2nccn3c(-c4ccc(OC(F)F)c(F)c4F)cnc23)ccc1C(=O)N1CCC(C(=O)NCC2CC[N+](C)(CC3CNC3)C2)CC1.O=C([O-])C(F)(F)F.O=CO (stereo not shown) [Example 98, N-[[1-(Azetidin-3-ylmethyl)-1-methyl-pyrrolidin-1-ium-3-yl]methyl]-1-[4-[[3-[4-(difluoromethoxy)-2,3-difluoro-phenyl]imidazo[1,2-a]pyrazin-8-yl]amino]-2-ethyl-benzoyl]piperidine-4-carboxamide formate/2,2,2-trifluoroacetate (Mixed Salt)] | 0.92 | 
CCc1cc(Nc2nccn3c(-c4ccc(OC(F)F)c(F)c4F)cnc23)ccc1C(=O)N1CCC(C(=O)N2C[C@@H]3C[C@H]2C[N+]3(C)CC2CNC2)CC1.O=C([O-])C(F)(F)F.O=CO (mixture of isomers) [Example 100, [4-[[3-[4-(Difluoromethoxy)-2,3-difluoro-phenyl]imidazo[1,2-a]pyrazin-8-yl]amino]-2-ethyl-phenyl]-[4-[rac-(1S,4S)-5-(azetidin-3-ylmethyl)-5-methyl-2-aza-5-azoniabicyclo[2.2.1]heptane-2-carbonyl]-1-piperidyl]methanone; formic acid; 2,2,2-trifluoroacetate (Mixed Salt)] | 1.84 | 
CCc1cc(Nc2nccn3c(-c4ccc(Oc5cnn(C)n5)c(F)c4F)cnc23)ccc1C(=O)NCC1CC[N+](C)(CC2CCNC2)CC1.O=C[O-] (stereo not shown) [Example 6, 4-[[3-[2,3-difluoro-4-(2-methyltriazol-4-yl)oxy-phenyl]imidazo[1,2-a]pyrazin-8-yl]amino]-2-ethyl-N-[[1-methyl-1-(pyrrolidin-3-ylmethyl)piperidin-1-ium-4-yl]methyl]benzamide Formate] | 8.57 | 
CCc1cc(Nc2nccn3c(-c4ccc(OC(F)F)c(F)c4F)cnc23)ccc1C(=O)N1CCC(C(=O)N2CC3(C2)C[N+](C)(CC2CNC2)C3)CC1.O=C([O-])C(F)(F)F.O=CO [Example 99, [4-[2-(azetidin-3-ylmethyl)-2-methyl-6-aza-2-azoniaspiro[3.3]-6-carbonyl]-1-piperidyl]-[4-[[3-[4-(difluoromethoxy)-2,3-difluoro-phenyl]imidazo[1,2-a]pyrazin-8-yl]amino]-2-ethyl-phenyl]methanone formic acid 2,2,2-trifluoroacetate (Mixed Salt)] | 0.92 | 
CCc1cc(Nc2nccn3c(-c4ccc(OC)c(F)c4F)cnc23)ccc1C(=O)NCCOCC[N+](C)(C)CCO [Example 51, 2-[2-[[4-[[3-(2,3-Difluoro-4-methoxy-phenyl)imidazo[1,2-a]pyrazin-8-yl]amino]-2-ethyl-benzoyl]amino]ethoxy]ethyl-(2-hydroxyethyl)-dimethyl-ammonium formate] |  | IC90 [2, 4]: 62.8 nM
CCc1cc(Nc2nccn3c(-c4ccc(OC)c(F)c4F)cnc23)ccc1C(=O)NCC[N+]1(C)CCC(C(N)=O)C1.O=C([O-])C(F)(F)F (stereo not shown) [Example 144, 1-[2-[[4-[[3-(2,3-Difluoro-4-methoxy-phenyl)imidazo[1,2-a]pyrazin-8-yl]amino]-2-ethyl-benzoyl]amino]ethyl]-1-methyl-pyrrolidin-1-ium-3-carboxamide 2,2,2-trifluoroacetate] | 3.62 | 
C[N+](C)(C)CC(=O)N1CCN(C(=O)c2ccc(Nc3nccn4c(-c5ccc(OCC#N)c(F)c5F)cnc34)cc2Cl)CC1 [Example 54, 2-(4-(2-Chloro-4-((3-(4-(cyanomethoxy)-2,3-difluorophenyl)imidazo[1,2-a]pyrazin-8-yl)amino)benzoyl)piperazin-1-yl)-N,N,N-trimethyl-2-oxoethan-1-aminium Formate] |  | IC90 [2, 4]: 45.2 nM
COc1ccc(-c2cnc3c(Nc4ccc(C(=O)N(C)CCN5CC[N+](C)(C)CC5)c(Cl)c4)nccn23)c(F)c1F [Example 21, 2-chloro-4-[[3-(2,3-difluoro-4-methoxy-phenyl)imidazo[1,2-a]pyrazin-8-yl]amino]-N-[2-(4,4-dimethylpiperazin-4-ium-1-yl)ethyl]-N-methyl-benzamide 2,2,2-trifluoroacetate] |  | IC90 ([2]; ATCC17978, 16 h): 480 nM
CCc1cc(Nc2nccn3c(-c4ccc(OC(F)F)c(F)c4F)cnc23)ccc1C(=O)N[C@@H](C)CNC(=O)C1CC[N+](C)(CC2CNC2)CC1.O=C[O-] (stereo partly drawn) [Example 114, 1-(Azetidin-3-ylmethyl)-N-[(2S)-2-[[4-[[3-[4-(difluoromethoxy)-2,3-difluoro-phenyl]imidazo[1,2-a]pyrazin-8-yl]amino]-2-ethyl-benzoyl]amino]propyl]-1-methyl-piperidin-1-ium-4-carboxamide Formate] | 17.8 | 
